Data from US10927105B1 (Lundbeck La Jolla Research Center, Inc., priority 2017, dated 2021).

Experiments:
MAGL = MAGL (Homo sapiens (Human), UniProt Q99685); test: In vitro competitive activity-based protein profiling (human prefrontal cortex membrane fractions, FP-Rh probe), MAGL band; conditions: for IC50: read-out: MAGL IC50 (μM) (human), human prefrontal cortex membrane fractions
FAAH = FAAH (Homo sapiens (Human), UniProt O00519); test: In vitro competitive activity-based protein profiling (human prefrontal cortex membrane fractions, FP-Rh probe), FAAH band; conditions: for IC50: read-out: FAAH IC50 (μM) (human), human prefrontal cortex membrane fractions
Chain of FAAH (O00519 whole entry): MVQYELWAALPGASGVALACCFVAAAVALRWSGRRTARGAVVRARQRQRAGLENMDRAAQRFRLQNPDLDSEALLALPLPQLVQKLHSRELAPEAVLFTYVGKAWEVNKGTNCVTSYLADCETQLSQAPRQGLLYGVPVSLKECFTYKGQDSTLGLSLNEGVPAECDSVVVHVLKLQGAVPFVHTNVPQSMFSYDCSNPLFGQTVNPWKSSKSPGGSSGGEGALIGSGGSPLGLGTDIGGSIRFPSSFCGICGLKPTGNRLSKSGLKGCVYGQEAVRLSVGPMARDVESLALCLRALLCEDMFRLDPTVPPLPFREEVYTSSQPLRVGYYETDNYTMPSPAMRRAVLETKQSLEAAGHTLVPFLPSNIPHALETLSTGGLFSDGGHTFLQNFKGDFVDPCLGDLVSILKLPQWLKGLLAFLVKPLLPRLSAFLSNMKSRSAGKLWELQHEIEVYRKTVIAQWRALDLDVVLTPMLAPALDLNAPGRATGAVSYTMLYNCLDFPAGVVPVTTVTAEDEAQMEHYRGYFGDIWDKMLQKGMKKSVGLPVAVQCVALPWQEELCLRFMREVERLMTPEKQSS
Description: Biological Evaluation In Vitro Competitive Activity-Based Protein Profiling.
Proteomes (mouse brain membrane fraction for mouse assays; human prefrontal cortex membrane fractions for human assays) (50 mL, 1.0 mg/mL total protein concentration) were preincubated with varying concentrations of inhibitors at 37° C. After 30 min, FP-Rh (1.0 mL, 50 mM in DMSO) was added and the mixture was incubated for another 30 min at 37° C. Reactions were quenched with SDS loading buffer (15 μL-4×) and run on SDS-PAGE.

Chain of MAGL (Q99685 whole entry): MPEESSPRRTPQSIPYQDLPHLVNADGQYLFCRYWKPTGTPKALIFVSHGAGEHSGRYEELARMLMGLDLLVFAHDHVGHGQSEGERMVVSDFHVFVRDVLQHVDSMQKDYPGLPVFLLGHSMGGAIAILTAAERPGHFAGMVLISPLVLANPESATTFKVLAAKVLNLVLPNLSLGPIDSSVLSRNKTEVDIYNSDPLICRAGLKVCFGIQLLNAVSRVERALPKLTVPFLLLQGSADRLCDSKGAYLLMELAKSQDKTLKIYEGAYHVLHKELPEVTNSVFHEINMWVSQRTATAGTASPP

| IC50 (MAGL) [µM] | Structure (SMILES) | further results |
| --- | --- | --- |
| < 0.1 | CN(Cc1ccccc1C(F)(F)F)[C@@H]1C[C@@H]2CN(C(=O)n3ccc(C(N)=O)n3)C[C@@H]2C1 [Example 204, 1-(cis-5-(methyl(2-(trifluoromethyl)-benzyl)amino)-octahydrocyclopenta-[c]pyrrole-2-carbonyl)-1H-pyrazole-3-carboxamide] | IC50 (FAAH): < 0.1 µM |
| < 0.1 | CN(Cc1cccc(C(F)(F)F)c1)C1CCN(C(=O)n2ccc(C(N)=O)n2)CC1 [Example 176, 1-(4-(methyl(3-(trifluoromethyl)-benzyl)amino)-piperidine-1-carbonyl)-1H-pyrazole-3-carboxamide] | IC50 (FAAH): < 0.1 µM |
| < 0.1 | CN(Cc1ccccc1Cl)[C@H]1C[C@@H]2CN(C(=O)n3ccc(C(N)=O)n3)C[C@@H]2C1 [Example 200, 1-(trans-5-((2-chlorobenzyl)-(methyl)amino)-octahydrocyclopenta-[c]pyrrole-2-carbonyl)-1H-pyrazole-3-carboxamide] | IC50 (FAAH): < 0.1 µM |
| < 0.1 | NC(=O)c1ccn(C(=O)N2CC3CN(Cc4cc(Cl)ccc4Cl)CC3C2)n1 (centres unmarked) [Example 202, 1-(5-(2,5-dichlorobenzyl)-octahydropyrrolo-[3,4-c]pyrrole-2-carbonyl)-1H-pyrazole-3-carboxamide] | IC50 (FAAH): < 0.1 µM |
| – | NC(=O)c1ccn(C(=O)N2CCN(Cc3cccc(Oc4ccccc4)c3)CC2)n1 [Example 198, 1-(4-(3-phenoxybenzyl)-piperazine-1-carbonyl)-1H-pyrazole-3-carboxamide] | inhibition at 1 µM (MAGL; read-out: MAGL % inh. 1 μM (human)): > 75%; inhibition at 1 µM (FAAH; read-out: FAAH % inh. 1 μM (human)): > 75% |
| < 0.1 | NC(=O)c1ccn(C(=O)N2CCC3(CCN(Cc4ccc(N5CCCC5)cc4C(F)(F)F)C3)CC2)n1 [Example 195, 1-(2-(4-(pyrrolidin-1-yl)-2-(trifluoromethyl)-benzyl)-2,8-diazaspiro[4.5]-decane-8-carbonyl)-1H-pyrazole-3-carboxamide] | IC50 (FAAH): < 0.1 µM |
| < 0.1 | CN(Cc1ccccc1Cl)[C@H]1C[C@@H]2CN(C(=O)n3cc(Cl)c(C(N)=O)n3)C[C@@H]2C1 [Example 128, 4-chloro-1-(trans-5-((2-chlorobenzyl)-(methyl)amino)-octahydrocyclopenta-[c]pyrrole-2-carbonyl)-1H-pyrazole-3-carboxamide] | IC50 (FAAH): < 0.1 µM |
| < 0.1 | O=C(O)c1nn(C(=O)N2CCN(Cc3cccc(Oc4ccc(Cl)cc4)c3)CC2)cc1Cl [Example 132, 4-chloro-1-(4-(3-(4-chlorophenoxy)-benzyl)-piperazine-1-carbonyl)-1H-pyrazole-3-carboxylic acid] | IC50 (FAAH): < 0.1 µM |
| < 0.1 | NC(=O)c1ccn(C(=O)N2CC3CN(Cc4cc(Cl)cc(C(F)(F)F)c4)CC3C2)n1 (centres unmarked) [Example 201, 1-(5-(3-chloro-5-(trifluoromethyl)-benzyl)-octahydropyrrolo-[3,4-c]pyrrole-2-carbonyl)-1H-pyrazole-3-carboxamide] | IC50 (FAAH): < 0.1 µM |
| < 0.1 | Cc1cc(CO[C@H]2C[C@@H]3CN(C(=O)n4ccc(C(=O)O)n4)C[C@@H]3C2)ccc1C(F)(F)F [Example 172, 1-(trans-5-((3-methyl-4-(trifluoromethyl)-benyl)oxy)-octahydrocyclopenta-[c]pyrrole-2-carbonyl)-1H-pyrazole-3-carboxylic acid] | IC50 (FAAH): < 0.1 µM |
| < 0.1 | C[C@@H]1CN(Cc2ccc(C(F)(F)F)cc2N2CCCC2)CCN1C(=O)n1ccc(C(=O)O)n1 [Example 327, (R)-1-(2-methyl-4-(2-(pyrrolidin-1-yl)-4-(trifluoromethyl)-benzyl)-piperazine-1-carbonyl)-1H-pyrazole-3-carboxylic acid] | – |
| < 0.1 | O=C(O)c1ccn(C(=O)N2CCC3(CCN(Cc4cc(Cl)ccc4OC(F)(F)F)C3)CC2)n1 [Example 371, 1-(2-(5-chloro-2-(trifluoromethoxy)-benzyl)-2,8-diazaspiro[4.5]-decane-8-carbonyl)-1H-pyrazole-3-carboxylic acid] | – |
| < 0.1 | Cc1cn(C(=O)N2CCC3(CCN(Cc4cc(Cl)ccc4C(F)(F)F)C3)CC2)nc1C(=O)O [Example 130, 1-(2-(5-chloro-2-(trifluoromethyl)-benzyl)-2,8-diazaspiro[4.5]-decane-8-carbonyl)-4-methyl-1H-pyrazole-3-carboxylic acid] | – |
| < 0.1 | O=C(O)c1ccn(C(=O)N2CCN(Cc3ccc(C(F)(F)F)cc3N3CCOCC3)CC2)n1 [Example 3, 1-(4-(2-Morpholino-4-(trifluoromethyl)benzyl)piperazine-1-carbonyl)-1H-pyrazole-3-carboxylic Acid] | – |
| < 0.1 | O=C(O)c1ccn(C(=O)N2C[C@H]3C[C@H](Oc4ccccc4-c4ccccc4)C[C@H]3C2)n1 [Example 239, 1-(trans-5-([1,1′-biphenyl]-2-yloxy)-octahydrocyclopenta-[c]pyrrole-2-carbonyl)-1H-pyrazole-3-carboxylic acid] | – |
| < 0.1 | O=C(O)c1ccn(C(=O)N2CCC3(CCN(Cc4cc(Cl)cc(C(F)(F)F)c4)C3)CC2)n1 [Example 72, 1-(2-(3-chloro-5-(trifluoromethyl)-benzyl)-2,8-diazaspiro[4.5]-decane-8-carbonyl)-1H-pyrazole-3-carboxylic acid] | – |

| IC50 (MAGL) [µM] | Structure (SMILES) | further results |
| --- | --- | --- |
| < 0.1 | O=C(O)c1ccn(C(=O)N2CCC3(CCN(Cc4ccc(-c5ccccc5)cc4C(F)(F)F)C3)CC2)n1 [Example 170, 1-(2-((3-(trifluoromethyl)-[1,1′-biphenyl]-4-yl)methyl)-2,8-diazaspiro[4.5]-decane-8-carbonyl)-1H-pyrazole-3-carboxylic acid] | – |
| < 0.1 | O=C(O)c1ccn(C(=O)N2C[C@H]3C[C@H](Oc4ccccc4C4CCOCC4)C[C@H]3C2)n1 [Example 268, 1-(trans-5-(2-(tetrahydro-2H-pyran-4-yl)phenoxy)-octahydrocyclopenta-[c]pyrrole-2-carbonyl)-1H-pyrazole-3-carboxylic acid] | – |
| < 0.1 | NC(=O)c1ccn(C(=O)N2CC3CN(Cc4ccc(C5(C(=O)O)CCOCC5)cc4C(F)(F)F)CC3C2)n1 (centres unmarked) [Example 35, 4-(4-((5-(3-carbamoyl-1H-pyrazole-1-carbonyl)hexahydropyrrolo[3,4-c]pyrrol-2(1H)-yl)methyl)-3-(trifluoromethyl)phenyl)tetrahydro-2H-pyran-4-carboxylic acid] | – |
| < 0.1 | CN(Cc1cc(Cl)ccc1C(F)(F)F)CC1CCN(C(=O)n2cc(Cl)c(C(=O)O)n2)CC1 [Example 54, 4-chloro-1-(4-(((5-chloro-2-(trifluoromethyl)-benzyl)(methyl)-amino)-methyl)piperidine-1-carbonyl)-1H-pyrazole-3-carboxylic acid] | – |
| < 0.1 | O=C(O)c1ccn(C(=O)N2C[C@H]3C[C@H](OCc4cccc(C5CCCC5)c4)C[C@H]3C2)n1 [Example 34, 1-(trans-5-((3-Cyclopentylbenzyl)oxy)octahydrocyclopenta[c]pyrrole-2-carbonyl)-1H-pyrazole-3-carboxylic Acid] | – |
| < 0.1 | C[C@@H]1CN(Cc2ccc(C(F)(F)F)cc2N2CCCC2)CCN1C(=O)n1ccc(C(N)=O)n1 [Example 325, (R)-1-(2-methyl-4-(2-(pyrrolidin-1-yl)-4-(trifluoromethyl)-benzyl)piperazine-1-carbonyl)-1H-pyrazole-3-carboxamide] | – |
| < 0.1 | Cc1cc(CN2CCCC23CCN(C(=O)n2ccc(C(=O)O)n2)CC3)cc(C(F)(F)F)c1 [Example 303, 1-(1-(3-methyl-5-(trifluoromethyl)-benzyl)-1,8-diazaspiro[4.5]-decane-8-carbonyl)-1H-pyrazole-3-carboxylic acid] | – |
| < 0.1 | O=C(O)c1ccn(C(=O)N2C[C@H]3C[C@H](OCc4ccc(Cl)c(-c5nccs5)c4)C[C@H]3C2)n1 [Example 345, 1-(trans-5-((4-chloro-3-(thiazol-2-yl)benzyl)oxy)-octahydrocyclopenta-[c]pyrrole-2-carbonyl)-1H-pyrazole-3-carboxylic acid] | – |
| < 0.1 | O=C(O)c1nn(C(=O)N2CCN(Cc3ccc(N4CCCC4)cc3C(F)(F)F)CC2)cc1Cl [Example 368, 4-chloro-1-(4-(4-(pyrrolidin-1-yl)-2-(trifluoromethyl)-benzyl)piperazine-1-carbonyl)-1H-pyrazole-3-carboxylic acid] | – |
| < 0.1 | O=C(O)c1ccn(C(=O)N2CCN(Cc3ccc(N4CCCC4)cc3C(F)(F)F)CC2)n1 [Example 167, 1-(4-(4-(pyrrolidin-1-yl)-2-(trifluoromethyl)-benzyl)piperazine-1-carbonyl)-1H-pyrazole-3-carboxylic acid] | – |
| < 0.1 | O=C(O)c1nn(C(=O)N2CCN(Cc3cccc(Oc4cc(C(F)(F)F)ccn4)c3)CC2)cc1C(F)(F)F [Example 414, 4-(trifluoromethyl)-1-(4-(3-((4-(trifluoromethyl)-pyridin-2-yl)oxy)benzyl)-piperazine-1-carbonyl)-1H-pyrazole-3-carboxylic acid] | – |
| < 0.1 | O=C(O)c1ccn(C(=O)N2C[C@H]3C[C@H](Oc4ccccc4-c4cccnc4)C[C@H]3C2)n1 [Example 244, 1-(trans-5-(2-(pyridin-3-yl)phenoxy)-octahydrocyclopenta-[c]pyrrole-2-cathonyl)-1H-pyrazole-3-carboxylic acid] | – |
| < 0.1 | CC(C)COc1cccc(O[C@H]2C[C@@H]3CN(C(=O)n4ccc(C(=O)O)n4)C[C@@H]3C2)c1Cl [Example 448] | – |
| < 0.1 | O=C(O)c1ccn(C(=O)N2CCN(Cc3ccc(Oc4ccc(Cl)cc4)cc3)CC2)n1 [Example 45, 1-(4-(4-(4-chlorophenoxy)-benzyl)piperazine-1-carbonyl)-1H-pyrazole-3-carboxylic acid] | – |
| < 0.1 | C[C@@H]1C[C@@H](N(C)Cc2cccc(C(F)(F)F)c2)CCN1C(=O)n1ccc(C(N)=O)n1 [Example 260, 1-((2R,4S)-2-methyl-4-(methyl(3-(trifluoromethyl)-benzyl)amino)-piperidine-1-carbonyl)-1H-pyrazole-3-carboxamide] | – |
